Measurements reported in the kinase profiling compilation of Christmann-Franck et al. (2016).

Key:
Assay in all cases: KINOMEscan competition binding
Details in all cases: compound 10.0 µM
[1] = biological target: ACVR2B (human) (UniProt Q13705)
[2] = biological target: AKT2 (human) (UniProt P31751)
[3] = biological target: AURKB (human) (UniProt Q96GD4)
[4] = biological target: BRSK1 (human) (UniProt Q8TDC3)
[5] = biological target: CAMK2A (human) (UniProt Q9UQM7)
[6] = biological target: CHUK (human) (UniProt O15111)
Chain of CHUK (human) (O15111 whole entry, looked up): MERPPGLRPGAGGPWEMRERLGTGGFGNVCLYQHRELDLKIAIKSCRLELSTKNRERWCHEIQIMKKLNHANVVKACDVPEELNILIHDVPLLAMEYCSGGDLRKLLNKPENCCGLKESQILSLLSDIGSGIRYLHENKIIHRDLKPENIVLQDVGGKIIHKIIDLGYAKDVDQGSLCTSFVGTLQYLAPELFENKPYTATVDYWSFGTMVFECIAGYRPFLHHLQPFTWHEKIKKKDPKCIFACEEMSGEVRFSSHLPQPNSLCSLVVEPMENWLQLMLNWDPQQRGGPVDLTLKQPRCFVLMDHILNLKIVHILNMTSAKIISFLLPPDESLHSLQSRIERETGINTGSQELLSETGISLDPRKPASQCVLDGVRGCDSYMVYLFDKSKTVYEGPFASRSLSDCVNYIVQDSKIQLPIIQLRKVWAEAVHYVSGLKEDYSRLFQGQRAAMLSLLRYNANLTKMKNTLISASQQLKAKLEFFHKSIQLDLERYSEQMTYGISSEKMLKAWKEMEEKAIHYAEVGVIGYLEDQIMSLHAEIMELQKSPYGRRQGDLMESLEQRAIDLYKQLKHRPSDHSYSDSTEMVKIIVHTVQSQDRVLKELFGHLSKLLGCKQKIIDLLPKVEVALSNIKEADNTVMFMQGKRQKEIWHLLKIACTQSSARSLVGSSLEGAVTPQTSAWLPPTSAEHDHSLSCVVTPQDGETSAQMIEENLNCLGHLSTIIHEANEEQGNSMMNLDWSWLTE

[7] = biological target: CLK1 (human) (UniProt P49759)
Chain of CLK1 (human) (P49759 whole entry, looked up): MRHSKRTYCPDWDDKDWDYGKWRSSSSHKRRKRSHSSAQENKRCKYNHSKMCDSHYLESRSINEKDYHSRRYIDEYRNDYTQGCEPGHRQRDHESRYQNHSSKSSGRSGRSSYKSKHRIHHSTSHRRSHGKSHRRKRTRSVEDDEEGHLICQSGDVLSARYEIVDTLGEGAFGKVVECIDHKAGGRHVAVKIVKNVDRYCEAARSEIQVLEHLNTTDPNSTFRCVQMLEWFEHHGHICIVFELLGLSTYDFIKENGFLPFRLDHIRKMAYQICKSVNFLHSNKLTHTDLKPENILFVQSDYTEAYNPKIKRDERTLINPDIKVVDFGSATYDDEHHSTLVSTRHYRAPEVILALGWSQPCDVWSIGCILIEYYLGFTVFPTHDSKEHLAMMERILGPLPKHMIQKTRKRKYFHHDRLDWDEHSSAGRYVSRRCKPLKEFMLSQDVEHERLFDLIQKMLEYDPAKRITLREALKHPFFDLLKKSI

[8] = biological target: CSNK1D (human) (UniProt P48730)
Chain of CSNK1D (human) (P48730 whole entry, looked up): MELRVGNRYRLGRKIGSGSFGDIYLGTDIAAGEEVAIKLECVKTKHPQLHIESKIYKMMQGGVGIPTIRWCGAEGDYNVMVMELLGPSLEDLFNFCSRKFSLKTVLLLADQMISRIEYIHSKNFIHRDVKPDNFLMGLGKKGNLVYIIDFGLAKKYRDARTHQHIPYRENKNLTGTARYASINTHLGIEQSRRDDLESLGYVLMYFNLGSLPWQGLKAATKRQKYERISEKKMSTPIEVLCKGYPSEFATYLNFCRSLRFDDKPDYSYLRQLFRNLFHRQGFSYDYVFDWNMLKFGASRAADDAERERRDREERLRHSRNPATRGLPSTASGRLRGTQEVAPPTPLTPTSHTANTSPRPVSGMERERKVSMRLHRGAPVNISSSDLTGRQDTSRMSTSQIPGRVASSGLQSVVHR

[9] = biological target: CaMK1 (human) (UniProt Q14012)
[10] = biological target: DAPK1 (human) (UniProt P53355)
[11] = biological target: EIF2AK2 (human) (UniProt P19525)
[12] = biological target: EPHA4 (human) (UniProt P54764)
[13] = biological target: ERBB2 (human) (UniProt P04626)
[14] = biological target: FYN (human) (UniProt P06241)
[15] = biological target: HIPK1 (human) (UniProt Q86Z02)
Chain of HIPK1 (human) (Q86Z02 whole entry, looked up): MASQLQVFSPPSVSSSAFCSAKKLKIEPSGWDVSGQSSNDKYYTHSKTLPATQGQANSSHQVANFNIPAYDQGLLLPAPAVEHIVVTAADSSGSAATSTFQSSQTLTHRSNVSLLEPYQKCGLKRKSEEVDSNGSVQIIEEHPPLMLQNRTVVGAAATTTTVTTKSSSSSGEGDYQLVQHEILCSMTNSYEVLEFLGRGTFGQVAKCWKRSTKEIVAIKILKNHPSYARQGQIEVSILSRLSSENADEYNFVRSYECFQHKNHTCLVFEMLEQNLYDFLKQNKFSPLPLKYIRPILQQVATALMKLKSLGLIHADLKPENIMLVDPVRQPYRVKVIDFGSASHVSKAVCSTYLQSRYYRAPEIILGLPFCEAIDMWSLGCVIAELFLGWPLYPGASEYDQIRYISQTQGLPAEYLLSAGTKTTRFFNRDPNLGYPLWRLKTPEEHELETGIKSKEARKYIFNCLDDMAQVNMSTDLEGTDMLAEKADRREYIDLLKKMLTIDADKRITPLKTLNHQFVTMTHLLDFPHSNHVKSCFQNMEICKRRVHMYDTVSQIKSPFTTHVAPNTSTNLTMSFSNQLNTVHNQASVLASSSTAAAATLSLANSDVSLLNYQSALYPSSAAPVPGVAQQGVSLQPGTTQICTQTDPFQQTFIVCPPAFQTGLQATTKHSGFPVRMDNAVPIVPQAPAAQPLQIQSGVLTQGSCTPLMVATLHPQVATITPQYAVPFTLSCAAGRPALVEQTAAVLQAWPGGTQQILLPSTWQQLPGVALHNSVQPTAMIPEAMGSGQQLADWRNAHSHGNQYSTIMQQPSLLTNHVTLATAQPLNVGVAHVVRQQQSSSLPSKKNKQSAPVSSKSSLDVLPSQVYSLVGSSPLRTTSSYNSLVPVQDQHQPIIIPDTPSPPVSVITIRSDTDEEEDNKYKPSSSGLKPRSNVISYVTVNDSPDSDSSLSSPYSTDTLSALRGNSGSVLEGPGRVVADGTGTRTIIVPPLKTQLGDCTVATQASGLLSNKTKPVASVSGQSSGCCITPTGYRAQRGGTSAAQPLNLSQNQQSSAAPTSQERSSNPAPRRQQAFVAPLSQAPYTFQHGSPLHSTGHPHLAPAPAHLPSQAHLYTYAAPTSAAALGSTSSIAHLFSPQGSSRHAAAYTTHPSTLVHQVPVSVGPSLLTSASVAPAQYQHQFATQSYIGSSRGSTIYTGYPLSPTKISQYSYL

[16] = biological target: ITK (human) (UniProt Q08881)
Chain of ITK (human) (Q08881 whole entry, looked up): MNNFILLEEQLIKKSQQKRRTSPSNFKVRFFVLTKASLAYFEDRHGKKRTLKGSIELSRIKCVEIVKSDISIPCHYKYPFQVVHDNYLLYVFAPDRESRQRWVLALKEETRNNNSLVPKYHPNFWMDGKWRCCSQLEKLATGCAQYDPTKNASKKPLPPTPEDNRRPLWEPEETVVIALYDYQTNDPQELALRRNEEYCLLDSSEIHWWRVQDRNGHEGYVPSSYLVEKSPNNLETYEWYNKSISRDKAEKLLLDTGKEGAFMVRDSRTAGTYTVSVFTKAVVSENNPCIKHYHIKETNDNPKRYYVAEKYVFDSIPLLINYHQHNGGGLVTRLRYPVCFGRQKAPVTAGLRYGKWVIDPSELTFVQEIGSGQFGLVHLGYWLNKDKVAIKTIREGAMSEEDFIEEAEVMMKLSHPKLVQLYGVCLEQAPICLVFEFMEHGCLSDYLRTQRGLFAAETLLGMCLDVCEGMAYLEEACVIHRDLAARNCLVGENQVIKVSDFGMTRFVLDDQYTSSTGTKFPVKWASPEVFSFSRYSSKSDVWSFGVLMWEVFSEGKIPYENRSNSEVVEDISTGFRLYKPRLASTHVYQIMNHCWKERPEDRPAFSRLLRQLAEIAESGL

[17] = biological target: LTK (human) (UniProt P29376)
[18] = biological target: MAP3K12 (human) (UniProt Q12852)
[19] = biological target: MAP4K1 (human) (UniProt Q92918)
[20] = biological target: MAPK1 (human) (UniProt P28482)
[21] = biological target: MAPK10 (human) (UniProt P53779)
[22] = biological target: MAPK11 (human) (UniProt Q15759)
[23] = biological target: MARK1 (human) (UniProt Q9P0L2)
Chain of MARK1 (human) (Q9P0L2 whole entry, looked up): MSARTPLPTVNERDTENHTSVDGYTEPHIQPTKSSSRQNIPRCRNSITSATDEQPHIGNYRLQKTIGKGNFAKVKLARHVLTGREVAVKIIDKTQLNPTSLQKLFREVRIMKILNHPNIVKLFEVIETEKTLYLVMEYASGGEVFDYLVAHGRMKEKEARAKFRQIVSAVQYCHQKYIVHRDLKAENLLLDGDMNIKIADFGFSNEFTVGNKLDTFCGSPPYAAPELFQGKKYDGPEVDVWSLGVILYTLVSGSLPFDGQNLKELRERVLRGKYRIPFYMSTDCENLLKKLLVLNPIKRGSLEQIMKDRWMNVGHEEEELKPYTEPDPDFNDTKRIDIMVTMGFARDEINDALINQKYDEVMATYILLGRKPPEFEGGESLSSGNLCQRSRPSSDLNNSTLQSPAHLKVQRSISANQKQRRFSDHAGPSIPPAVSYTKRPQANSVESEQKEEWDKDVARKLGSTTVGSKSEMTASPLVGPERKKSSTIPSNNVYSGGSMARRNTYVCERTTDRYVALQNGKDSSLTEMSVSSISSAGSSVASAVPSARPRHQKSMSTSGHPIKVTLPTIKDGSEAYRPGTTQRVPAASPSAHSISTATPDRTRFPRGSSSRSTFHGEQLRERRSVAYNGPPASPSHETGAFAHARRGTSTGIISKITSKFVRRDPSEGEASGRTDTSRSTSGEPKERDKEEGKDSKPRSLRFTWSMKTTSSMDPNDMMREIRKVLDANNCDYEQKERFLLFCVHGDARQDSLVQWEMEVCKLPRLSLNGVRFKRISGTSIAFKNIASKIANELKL

[24] = biological target: MELK (human) (UniProt Q14680)
[25] = biological target: MLTK (human) (UniProt Q9NYL2)
[26] = biological target: MUSK (human) (UniProt O15146)
[27] = biological target: MYLK4 (human) (UniProt Q86YV6)
[28] = biological target: NEK9 (human) (UniProt Q8TD19)
[29] = biological target: PAK3 (human) (UniProt O75914)
[30] = biological target: PAK4 (human) (UniProt O96013)
[31] = biological target: PDGFRB (human) (UniProt P09619)
[32] = biological target: PRKCQ (human) (UniProt Q04759)
Chain of PRKCQ (human) (Q04759 whole entry, looked up): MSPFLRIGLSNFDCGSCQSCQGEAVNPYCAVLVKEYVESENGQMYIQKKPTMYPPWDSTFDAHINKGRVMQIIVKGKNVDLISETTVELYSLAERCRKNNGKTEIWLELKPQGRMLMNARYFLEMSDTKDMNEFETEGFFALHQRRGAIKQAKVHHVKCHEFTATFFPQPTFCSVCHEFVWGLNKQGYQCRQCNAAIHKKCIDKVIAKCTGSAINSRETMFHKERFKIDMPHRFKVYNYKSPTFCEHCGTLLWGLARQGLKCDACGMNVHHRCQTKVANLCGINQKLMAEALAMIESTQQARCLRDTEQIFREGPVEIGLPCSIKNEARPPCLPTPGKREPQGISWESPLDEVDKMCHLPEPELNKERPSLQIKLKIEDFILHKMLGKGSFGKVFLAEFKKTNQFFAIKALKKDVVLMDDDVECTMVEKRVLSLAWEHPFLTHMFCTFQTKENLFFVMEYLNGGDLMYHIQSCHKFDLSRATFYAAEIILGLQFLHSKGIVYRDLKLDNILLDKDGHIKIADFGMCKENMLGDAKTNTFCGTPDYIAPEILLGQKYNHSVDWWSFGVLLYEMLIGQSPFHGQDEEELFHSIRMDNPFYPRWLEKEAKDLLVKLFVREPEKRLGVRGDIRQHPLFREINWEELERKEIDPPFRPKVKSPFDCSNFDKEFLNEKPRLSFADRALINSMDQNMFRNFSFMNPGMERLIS

[33] = biological target: RPS6KA1 KD1 (human) (UniProt Q15418)
[34] = biological target: RPS6KA5 KD2 (human) (UniProt O75582)
[35] = biological target: STK38L (human) (UniProt Q9Y2H1)
[36] = biological target: SYK (human) (UniProt P43405)
[37] = biological target: TEC (human) (UniProt P42680)
[38] = biological target: TYK2 JH2 pseudokinase (human) (UniProt P29597)
[39] = biological target: WEE2 (human) (UniProt P0C1S8)
[40] = biological target: DYRK1B (human) (UniProt Q9Y463)

| Compound | kinase still bound, per cent of control [1] [%] | kinase still bound, per cent of control [2] [%] | kinase still bound, per cent of control [4] [%] | kinase still bound, per cent of control [5] [%] | kinase still bound, per cent of control [7] [%] | kinase still bound, per cent of control [8] [%] | kinase still bound, per cent of control [9] [%] | kinase still bound, per cent of control [11] [%] | kinase still bound, per cent of control [12] [%] | kinase still bound, per cent of control [13] [%] | kinase still bound, per cent of control [14] [%] | kinase still bound, per cent of control [15] [%] | kinase still bound, per cent of control [16] [%] | kinase still bound, per cent of control [17] [%] | kinase still bound, per cent of control [18] [%] | kinase still bound, per cent of control [19] [%] | kinase still bound, per cent of control [20] [%] | kinase still bound, per cent of control [21] [%] | kinase still bound, per cent of control [22] [%] | kinase still bound, per cent of control [23] [%] | also measured |
| --- | --- | --- | --- | --- | --- | --- | --- | --- | --- | --- | --- | --- | --- | --- | --- | --- | --- | --- | --- | --- | --- |
| Cc1cc([C@@H](C)Nc2ccccc2C(=O)O)c2nc(N3CCOCC3)cc(=O)n2c1 | 100 | 86 | 99 | 75 | 74 | 86 | 100 | 99 | 93 | 100 | 100 | 100 | 98 | 95 | 85 | 100 | 100 | 82 | 91 | 100 | kinase still bound, per cent of control [3]: 96%; kinase still bound, per cent of control [6]: 100%; kinase still bound, per cent of control [10]: 95%; kinase still bound, per cent of control [24]: 100%; kinase still bound, per cent of control [25]: 100%; kinase still bound, per cent of control [26]: 100%; kinase still bound, per cent of control [27]: 98%; kinase still bound, per cent of control [28]: 100%; kinase still bound, per cent of control [29]: 98%; kinase still bound, per cent of control [30]: 100%; kinase still bound, per cent of control [31]: 100%; kinase still bound, per cent of control [32]: 97%; kinase still bound, per cent of control [33]: 73%; kinase still bound, per cent of control [34]: 91%; kinase still bound, per cent of control [35]: 94%; kinase still bound, per cent of control [36]: 100%; kinase still bound, per cent of control [37]: 91%; kinase still bound, per cent of control [38]: 100%; kinase still bound, per cent of control [39]: 100% |
| N#Cc1c(NC(=O)c2cccc3ccccc23)sc2c1CCCC2 | 67 | 100 | 100 | 92 | 69 | 100 | 73 | 100 | 100 | 87 | 63 | 91 | 89 | 90 | 79 | 89 | 89 | 0.95 | 100 | 100 | kinase still bound, per cent of control [3]: 94%; kinase still bound, per cent of control [10]: 85%; kinase still bound, per cent of control [40]: 89%; kinase still bound, per cent of control [24]: 85%; kinase still bound, per cent of control [25]: 87%; kinase still bound, per cent of control [26]: 97%; kinase still bound, per cent of control [27]: 98%; kinase still bound, per cent of control [28]: 70%; kinase still bound, per cent of control [29]: 94%; kinase still bound, per cent of control [30]: 100%; kinase still bound, per cent of control [31]: 44%; kinase still bound, per cent of control [32]: 86%; kinase still bound, per cent of control [33]: 100%; kinase still bound, per cent of control [34]: 95%; kinase still bound, per cent of control [35]: 98%; kinase still bound, per cent of control [36]: 99%; kinase still bound, per cent of control [37]: 91%; kinase still bound, per cent of control [38]: 100%; kinase still bound, per cent of control [39]: 70% |
| C[C@@H](Oc1cc(-n2cnc3ccc(CN4CCN(C)CC4)cc32)sc1C(N)=O)c1ccccc1C(F)(F)F | 100 | 100 | 42 | 4.9 | 36 | 100 | 90 | 76 | 100 | 68 | 100 | 40 | 89 | 100 | 57 | 83 | 100 | 100 | 100 | 100 | kinase still bound, per cent of control [3]: 80%; kinase still bound, per cent of control [6]: 65%; kinase still bound, per cent of control [40]: 89%; kinase still bound, per cent of control [24]: 49%; kinase still bound, per cent of control [25]: 100%; kinase still bound, per cent of control [26]: 100%; kinase still bound, per cent of control [27]: 78%; kinase still bound, per cent of control [28]: 10%; kinase still bound, per cent of control [29]: 96%; kinase still bound, per cent of control [30]: 37%; kinase still bound, per cent of control [31]: 9.8%; kinase still bound, per cent of control [32]: 47%; kinase still bound, per cent of control [33]: 29%; kinase still bound, per cent of control [34]: 34%; kinase still bound, per cent of control [35]: 100%; kinase still bound, per cent of control [36]: 100%; kinase still bound, per cent of control [37]: 91%; kinase still bound, per cent of control [38]: 100%; kinase still bound, per cent of control [39]: 83% |
| CCCS(=O)(=O)Nc1ccc(F)c(C(=O)c2c[nH]c3ncc(-c4ccc(Cl)cc4)cc23)c1F | 27 | 76 | 100 | 100 | 70 | 97 | 25 | 81 | 100 | 100 | 9.1 | 90 | 100 | 100 | 62 | 20 | 100 | 91 | 29 | 100 | kinase still bound, per cent of control [6]: 87%; kinase still bound, per cent of control [10]: 83%; kinase still bound, per cent of control [40]: 100%; kinase still bound, per cent of control [24]: 100%; kinase still bound, per cent of control [25]: 7.4%; kinase still bound, per cent of control [26]: 99%; kinase still bound, per cent of control [27]: 0.45%; kinase still bound, per cent of control [28]: 98%; kinase still bound, per cent of control [29]: 69%; kinase still bound, per cent of control [30]: 86%; kinase still bound, per cent of control [31]: 0.15%; kinase still bound, per cent of control [32]: 43%; kinase still bound, per cent of control [33]: 57%; kinase still bound, per cent of control [34]: 100%; kinase still bound, per cent of control [35]: 100%; kinase still bound, per cent of control [36]: 66%; kinase still bound, per cent of control [37]: 100%; kinase still bound, per cent of control [38]: 100%; kinase still bound, per cent of control [39]: 100% |
